Experimental data: patent US20110243924A1, “NOVEL METHODS” (priority 2007, published 2011)

How the values were obtained:
[1] = system: Men with COPD; test: Clinical Phase II study, single inhaled doses by dry powder inhaler; assay type: in vivo, human; conditions: for mean FEV1 AUC(0-24)/24: placebo 1.597 L
From the text: Clinical Phase […] study: A double-blind, randothised, placebo-controlled, cross-over trial assesses the pharmacodynamics, pharmacokinetics and tolerability of aclidinium and its effects in COPD patients
Lung function measurements include FEV1 and FVC.

[2] = target: T1, M1 human muscarinic receptor (Homo sapiens, UniProt P11229); test: Binding of aclidinium metabolites to muscarinic receptors
T1 sequence (P11229 1-460): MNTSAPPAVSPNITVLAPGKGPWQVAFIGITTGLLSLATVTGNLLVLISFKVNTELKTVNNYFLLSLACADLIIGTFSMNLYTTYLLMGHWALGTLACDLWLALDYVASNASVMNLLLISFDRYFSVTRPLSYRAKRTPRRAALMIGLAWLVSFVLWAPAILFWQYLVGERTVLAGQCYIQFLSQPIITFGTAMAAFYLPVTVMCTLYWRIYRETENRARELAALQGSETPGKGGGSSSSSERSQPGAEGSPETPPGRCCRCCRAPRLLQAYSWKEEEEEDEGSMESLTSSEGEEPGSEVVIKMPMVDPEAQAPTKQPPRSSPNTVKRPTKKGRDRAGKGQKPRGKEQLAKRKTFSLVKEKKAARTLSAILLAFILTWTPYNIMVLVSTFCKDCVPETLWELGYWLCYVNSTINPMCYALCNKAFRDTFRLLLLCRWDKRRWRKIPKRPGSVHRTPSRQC
Experimental: (§1) Aclidinium is rapidly hydrolyzed in human plasma in its alcohol and acid metabolites. […] The plasma half life of aclidinium in plasma is lower than 5 minutes for human. Moreover, aclidinium is stable in acid aqueous solutions (pH≦4) and the hydrolytic cleavage of the ester bond takes place at neutral and basic pHs.

[3] = target: M3 human muscarinic receptor (Homo sapiens, UniProt P20309); test: as above
Experimental: as §1

[4] = target: T2, M4 human muscarinic receptor (Homo sapiens, UniProt P08173); test: as above
T2 sequence (P08173 1-479): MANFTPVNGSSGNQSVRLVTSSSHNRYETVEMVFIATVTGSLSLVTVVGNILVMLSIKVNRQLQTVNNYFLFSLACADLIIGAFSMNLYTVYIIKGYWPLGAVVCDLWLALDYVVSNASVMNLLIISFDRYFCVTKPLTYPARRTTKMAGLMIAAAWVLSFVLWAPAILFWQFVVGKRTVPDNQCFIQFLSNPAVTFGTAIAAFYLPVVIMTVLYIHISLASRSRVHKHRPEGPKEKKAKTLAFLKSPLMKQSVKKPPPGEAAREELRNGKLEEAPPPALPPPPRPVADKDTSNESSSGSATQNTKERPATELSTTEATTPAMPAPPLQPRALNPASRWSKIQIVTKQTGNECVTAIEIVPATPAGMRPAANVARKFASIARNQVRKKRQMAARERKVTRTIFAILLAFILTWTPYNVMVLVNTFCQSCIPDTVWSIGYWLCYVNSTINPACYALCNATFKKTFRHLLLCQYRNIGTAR
Experimental: as §1

[5] = target: T3, M2 human muscarinic receptor (Homo sapiens, UniProt P08172); test: as above
T3 sequence (P08172 1-466): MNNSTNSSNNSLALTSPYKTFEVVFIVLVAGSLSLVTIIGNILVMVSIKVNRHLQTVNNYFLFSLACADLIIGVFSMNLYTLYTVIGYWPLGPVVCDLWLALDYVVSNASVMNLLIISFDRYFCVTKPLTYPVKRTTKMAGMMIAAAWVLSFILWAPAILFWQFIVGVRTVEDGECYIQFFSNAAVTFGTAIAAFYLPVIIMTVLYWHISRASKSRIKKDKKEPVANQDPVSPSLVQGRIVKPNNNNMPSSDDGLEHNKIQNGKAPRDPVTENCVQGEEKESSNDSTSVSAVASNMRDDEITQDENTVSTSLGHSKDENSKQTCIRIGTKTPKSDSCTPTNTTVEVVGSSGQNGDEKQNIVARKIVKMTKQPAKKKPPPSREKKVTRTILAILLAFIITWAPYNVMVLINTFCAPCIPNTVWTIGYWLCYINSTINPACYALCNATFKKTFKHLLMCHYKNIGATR
Experimental: as §1

[6] = system: healthy male volunteers; test: Clinical Phase I study, single inhaled doses by dry powder inhaler; assay type: in vivo, human
Experimental: Clinical Phase I study: Aclidinium bromide is tested in a Phase I, double-blind, partial cross-over, placebo controlled study to assess the activity, pharmacokinetics and tolerability of aclidinium.
Methods: 12 healthy male volunteers are randomly assigned to 1 of 4 treatment sequences comprising single doses of aclidinium (50, 300 and 600 micrograms) or placebo administered by dry powder inhaler. The washout period between administrations is at least 6 days. Efficacy endpoints are specific airway conductance (sGaw), airway resistance (Raw) and bronchial hyperresponsiveness (PC35 sGaw methacholine).

[7] = In vitro stability in human plasma; assay type: in vitro ADME; conditions: human plasma (lithium heparin), 36° C.
Experimental: The in vitro experiments are carried out at 36° C. and at a concentration of 5 μg/ml (6 μl of a 1 mg/ml dimethyl sulfoxide solution of each substance is added to a final volume of 1.2 ml). After 3 minutes of pre-incubation, reaction is started by addition of the test substances. At pre-defined times of 0, 5, 15, 30 and 60 min., aliquots of 100 μl of the plasma are separated and the reaction stopped by the addition of 1 ml of a 20 mM, pH 4.0 sodium acetate buffer solution. The test substances are replaced with buffer for the control reactions. Human plasma is obtained from volunteers by written informed consent. The blood is collected in tubes containing lithium heparin as anticoagulant, immediately centrifuged at 4° C. and the resultant plasma stored at −20° C. when not in use.
Plasma samples, previously diluted with 1 ml of a 20 mM, pH 4.0 sodium acetate buffer solution, were loaded into the C2 cartridges. […] There are no significant endogenous peaks at retention times of the analytes that would interfere with their quantitation. […] The lower limit of quantitation is established at 5 mg/ml for all analytes.

[8] = Stability in aqueous solutions; assay type: physicochemical; conditions: pH≦4
Experimental: as §1

[9] = after inhaled single doses 100, 300, 900 micrograms

Chain of M3 human muscarinic receptor (P20309 whole entry): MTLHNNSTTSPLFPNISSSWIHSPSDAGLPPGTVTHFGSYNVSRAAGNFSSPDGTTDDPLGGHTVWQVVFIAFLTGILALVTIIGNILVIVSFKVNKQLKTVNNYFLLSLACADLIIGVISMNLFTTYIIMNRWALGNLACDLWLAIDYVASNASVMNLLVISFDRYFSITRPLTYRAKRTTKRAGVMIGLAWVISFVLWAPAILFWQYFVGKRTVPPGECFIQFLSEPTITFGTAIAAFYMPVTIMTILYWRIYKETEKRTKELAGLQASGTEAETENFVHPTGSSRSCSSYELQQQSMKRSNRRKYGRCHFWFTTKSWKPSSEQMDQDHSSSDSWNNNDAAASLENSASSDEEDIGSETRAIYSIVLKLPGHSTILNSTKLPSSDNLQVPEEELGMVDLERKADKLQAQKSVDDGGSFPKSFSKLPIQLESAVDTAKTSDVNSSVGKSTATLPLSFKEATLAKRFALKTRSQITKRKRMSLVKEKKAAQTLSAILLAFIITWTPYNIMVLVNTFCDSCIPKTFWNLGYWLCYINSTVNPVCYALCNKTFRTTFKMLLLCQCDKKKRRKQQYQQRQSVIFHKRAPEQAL

Structure (SMILES)	plasma levels ([1]; following the 900 microgram dose)	affinity for M1 human muscarinic receptor [2]	affinity for M3 human muscarinic receptor [3]	affinity for M4 human muscarinic receptor [4]	affinity for M2 human muscarinic receptor [5]	PC35 sGaw methacholine (methacholine dose required to decrease sGaw) ([6]; aclidinium 300 micrograms, at 2 h, placebo 35.5)	PC35 sGaw methacholine (methacholine dose required to decrease sGaw) ([6]; aclidinium 300 micrograms, at 24 h, placebo 27.1)	PC35 sGaw methacholine (methacholine dose required to decrease sGaw) ([6]; aclidinium 600 micrograms, at 2 h, placebo 35.5)	PC35 sGaw methacholine (methacholine dose required to decrease sGaw) ([6]; aclidinium 600 micrograms, at 24 h, placebo 27.1)	detection in plasma ([6]; after inhaled single doses 50-600 micrograms)	study-drug-related adverse events ([6]; single inhaled doses 50-600 micrograms)	mean FEV1 AUC(0-24)/24 ([1]; aclidinium 100 micrograms, p=0.002)	mean FEV1 AUC(0-24)/24 ([1]; aclidinium 300 micrograms, p<0.0001)	mean FEV1 AUC(0-24)/24 ([1]; aclidinium 900 micrograms)	plasma levels [1, 9]	cases of mildly increased sweating possibly related to treatment ([1]; human, in vivo)	tolerability ([1]; single inhaled doses 100-900 micrograms)	cases of mild or moderate headache possibly related to treatment ([1]; vs 2 with placebo)	half-life at 5 μg/ml [7]	stability in acid aqueous solutions [8]
O=C(O)C(O)(c1cccs1)c1cccs1 [acid metabolite]	low levels	devoid of significant affinity	devoid of significant affinity	devoid of significant affinity	devoid of significant affinity															
O=C(O[C@H]1C[N+]2(CCCOc3ccccc3)CCC1CC2)C(O)(c1cccs1)c1cccs1 [aclidinium, 3(R)-(2-hydroxy-2,2-dithien-2-ylacetoxy)-1-(3-phenoxypropyl)-1-azoniabicyclo[2.2.2]octane]						207.1 mg/mL	142.7 mg/mL	256.0 mg/mL	181.7 mg/mL	Neither aclidinium nor its metabolites are detected	no study-drug-related adverse events	1.800 L	1.798 L	1.827 L	No plasma levels	1	well tolerated	6 cases	< 5 min	stable
O[C@H]1C[N+]2(CCCOc3ccccc3)CCC1CC2 [alcohol metabolite]		devoid of significant affinity	devoid of significant affinity	devoid of significant affinity	devoid of significant affinity										No plasma levels					
